Assay results: PMC5933747 (PLoS ONE, 2018)
Read-outs that look alike come from different tables or passages of the source.

Molecular target: human NaV1.5 (Homo sapiens, UniProt Q14524)
Assay: IonWorks Quattro (IWQ) electrophysiology, human NaV1.5
Type: cell-based
[1] = human, read-out: Ala mutant IWQ IC50 NaV1.5
[2] = human, read-out: Glu mutant IWQ IC50 NaV1.5

Sequence of human NaV1.5 (Q14524 whole entry): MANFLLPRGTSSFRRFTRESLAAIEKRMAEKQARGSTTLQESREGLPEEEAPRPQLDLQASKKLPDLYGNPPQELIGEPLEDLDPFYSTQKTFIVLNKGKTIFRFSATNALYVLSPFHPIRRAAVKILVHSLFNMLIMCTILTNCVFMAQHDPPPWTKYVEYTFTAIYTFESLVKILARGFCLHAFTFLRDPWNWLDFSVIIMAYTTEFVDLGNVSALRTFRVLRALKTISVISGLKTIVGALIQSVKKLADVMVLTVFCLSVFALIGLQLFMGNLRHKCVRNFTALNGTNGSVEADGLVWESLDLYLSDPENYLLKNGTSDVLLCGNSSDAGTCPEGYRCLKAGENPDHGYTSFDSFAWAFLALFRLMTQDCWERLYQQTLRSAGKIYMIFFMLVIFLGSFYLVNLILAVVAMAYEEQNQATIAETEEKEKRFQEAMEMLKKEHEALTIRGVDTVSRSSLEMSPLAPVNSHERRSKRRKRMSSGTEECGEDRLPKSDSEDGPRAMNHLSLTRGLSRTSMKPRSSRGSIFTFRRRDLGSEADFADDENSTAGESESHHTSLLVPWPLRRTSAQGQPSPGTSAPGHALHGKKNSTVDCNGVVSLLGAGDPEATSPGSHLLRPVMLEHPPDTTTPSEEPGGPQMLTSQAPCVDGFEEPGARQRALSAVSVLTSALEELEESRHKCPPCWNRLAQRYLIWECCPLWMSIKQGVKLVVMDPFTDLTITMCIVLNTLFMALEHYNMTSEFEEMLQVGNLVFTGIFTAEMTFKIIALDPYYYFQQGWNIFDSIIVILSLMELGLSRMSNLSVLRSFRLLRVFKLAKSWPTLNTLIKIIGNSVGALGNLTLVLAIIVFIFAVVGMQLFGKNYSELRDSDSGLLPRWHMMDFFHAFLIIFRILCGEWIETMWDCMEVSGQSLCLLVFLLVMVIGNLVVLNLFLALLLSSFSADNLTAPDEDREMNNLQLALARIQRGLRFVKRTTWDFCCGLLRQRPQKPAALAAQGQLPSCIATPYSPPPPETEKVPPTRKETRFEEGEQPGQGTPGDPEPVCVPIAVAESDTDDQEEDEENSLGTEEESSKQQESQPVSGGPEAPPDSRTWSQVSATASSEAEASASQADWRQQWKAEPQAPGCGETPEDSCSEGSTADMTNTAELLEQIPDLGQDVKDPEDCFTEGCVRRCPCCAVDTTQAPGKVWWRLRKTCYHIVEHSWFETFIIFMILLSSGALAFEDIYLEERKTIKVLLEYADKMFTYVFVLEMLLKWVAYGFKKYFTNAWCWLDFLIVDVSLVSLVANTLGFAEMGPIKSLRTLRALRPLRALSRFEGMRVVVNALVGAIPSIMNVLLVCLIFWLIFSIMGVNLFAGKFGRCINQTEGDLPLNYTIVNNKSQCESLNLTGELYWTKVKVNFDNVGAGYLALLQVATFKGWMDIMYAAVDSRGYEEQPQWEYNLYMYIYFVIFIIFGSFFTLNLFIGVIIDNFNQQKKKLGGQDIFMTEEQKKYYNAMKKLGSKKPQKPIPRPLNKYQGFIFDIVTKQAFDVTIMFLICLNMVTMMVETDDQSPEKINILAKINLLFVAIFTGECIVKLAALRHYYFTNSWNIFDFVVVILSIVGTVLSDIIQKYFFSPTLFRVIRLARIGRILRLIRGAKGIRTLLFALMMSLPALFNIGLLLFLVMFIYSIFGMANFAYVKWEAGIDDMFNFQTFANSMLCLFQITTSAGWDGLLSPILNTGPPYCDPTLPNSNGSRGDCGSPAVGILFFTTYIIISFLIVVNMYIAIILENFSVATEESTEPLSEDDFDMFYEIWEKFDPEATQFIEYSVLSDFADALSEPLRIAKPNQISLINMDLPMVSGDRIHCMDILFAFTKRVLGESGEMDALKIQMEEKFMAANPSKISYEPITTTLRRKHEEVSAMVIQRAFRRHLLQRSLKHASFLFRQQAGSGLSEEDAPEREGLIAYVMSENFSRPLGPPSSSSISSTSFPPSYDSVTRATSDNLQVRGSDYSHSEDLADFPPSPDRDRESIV

SMILES	IC50 [1] [µM]	also measured
CC[C@H](C)[C@H](NC(=O)[C@@H](NC(=O)[C@H](CCCCN)NC(=O)[C@H](CCCNC(=N)N)NC(=O)[C@@H]1CSSC[C@@H]2NC(=O)[C@H](C)NC(=O)[C@H](CCCNC(=N)N)NC(=O)[C@H](CCCCN)NC(=O)[C@H](CO)NC(=O)[C@H](CC(=O)O)NC(=O)[C@@H]3CSSC[C@H](NC(=O)[C@H](CCCNC(=N)N)NC(=O)[C@H](CC(C)C)NC(=O)CNC(=O)[C@H](CCC(=O)O)NC(=O)[C@H](CSSC[C@H](NC(=O)[C@@H](N)Cc4ccc(O)cc4)C(=O)N[C@@H](CCC(N)=O)C(=O)N[C@@H](CCCCN)C(=O)N[C@@H](Cc4c[nH]c5ccccc45)C(=O)N[C@@H](C)C(=O)N[C@@H](Cc4c[nH]c5ccccc45)C(=O)N[C@@H]([C@@H](C)O)C(=O)N3)NC2=O)C(=O)N[C@@H](CCCCN)C(=O)N[C@@H](CC(C)C)C(=O)N[C@@H](Cc2c[nH]c3ccccc23)C(=O)N1)[C@@H](C)CC)C(N)=O [M6 Ala mutant]	> 5	
CC[C@H](C)[C@H](NC(=O)[C@@H](NC(=O)[C@H](CCCCN)NC(=O)[C@H](CCCNC(=N)N)NC(=O)[C@@H]1CSSC[C@@H]2NC(=O)[C@H](C)NC(=O)[C@H](C)NC(=O)[C@H](CCCCN)NC(=O)[C@H](CO)NC(=O)[C@H](CC(=O)O)NC(=O)[C@@H]3CSSC[C@H](NC(=O)[C@H](CCCNC(=N)N)NC(=O)[C@H](CC(C)C)NC(=O)CNC(=O)[C@H](CCC(=O)O)NC(=O)[C@H](CSSC[C@H](NC(=O)[C@@H](N)Cc4ccc(O)cc4)C(=O)N[C@@H](CCC(N)=O)C(=O)N[C@@H](CCCCN)C(=O)N[C@@H](Cc4c[nH]c5ccccc45)C(=O)N[C@@H](CCSC)C(=O)N[C@@H](Cc4c[nH]c5ccccc45)C(=O)N[C@@H]([C@@H](C)O)C(=O)N3)NC2=O)C(=O)N[C@@H](CCCCN)C(=O)N[C@@H](CC(C)C)C(=O)N[C@@H](Cc2c[nH]c3ccccc23)C(=O)N1)[C@@H](C)CC)C(N)=O [R13 Ala mutant]	> 5	
CC[C@H](C)[C@H](NC(=O)[C@@H](NC(=O)[C@H](CCCCN)NC(=O)[C@H](CCCNC(=N)N)NC(=O)[C@@H]1CSSC[C@@H]2NC(=O)[C@H](C)NC(=O)[C@H](CCCNC(=N)N)NC(=O)[C@H](CCCCN)NC(=O)[C@H](CO)NC(=O)[C@H](CC(=O)O)NC(=O)[C@@H]3CSSC[C@H](NC(=O)[C@H](CCCNC(=N)N)NC(=O)[C@H](CC(C)C)NC(=O)CNC(=O)[C@H](C)NC(=O)[C@H](CSSC[C@H](NC(=O)[C@@H](N)Cc4ccc(O)cc4)C(=O)N[C@@H](CCC(N)=O)C(=O)N[C@@H](CCCCN)C(=O)N[C@@H](Cc4c[nH]c5ccccc45)C(=O)N[C@@H](CCSC)C(=O)N[C@@H](Cc4c[nH]c5ccccc45)C(=O)N[C@@H]([C@@H](C)O)C(=O)N3)NC2=O)C(=O)N[C@@H](CCCCN)C(=O)N[C@@H](CC(C)C)C(=O)N[C@@H](Cc2c[nH]c3ccccc23)C(=O)N1)[C@@H](C)CC)C(N)=O [E17 Ala mutant]		IC50 (read-out: Ala mutant IWQ IC50 NaV1.5): > 5 µM
CC[C@H](C)[C@H](NC(=O)[C@@H](NC(=O)[C@H](CCCCN)NC(=O)[C@H](CCCNC(=N)N)NC(=O)[C@@H]1CSSC[C@@H]2NC(=O)[C@H](C)NC(=O)[C@H](CCCNC(=N)N)NC(=O)[C@H](CCCCN)NC(=O)[C@H](CO)NC(=O)[C@H](CC(=O)O)NC(=O)[C@@H]3CSSC[C@H](NC(=O)[C@H](CCCNC(=N)N)NC(=O)[C@H](CC(C)C)NC(=O)CNC(=O)[C@H](CCC(=O)O)NC(=O)[C@H](CSSC[C@H](NC(=O)[C@@H](N)Cc4ccc(O)cc4)C(=O)N[C@@H](CCC(N)=O)C(=O)N[C@@H](CCCCN)C(=O)N[C@@H](Cc4c[nH]c5ccccc45)C(=O)N[C@@H](CCSC)C(=O)N[C@@H](Cc4c[nH]c5ccccc45)C(=O)N[C@@H](C)C(=O)N3)NC2=O)C(=O)N[C@@H](CCCCN)C(=O)N[C@@H](CC(C)C)C(=O)N[C@@H](Cc2c[nH]c3ccccc23)C(=O)N1)[C@@H](C)CC)C(N)=O [T8 Ala mutant]	> 5	
CC[C@H](C)[C@H](NC(=O)[C@@H](NC(=O)[C@H](CCCCN)NC(=O)[C@H](CCCNC(=N)N)NC(=O)[C@@H]1CSSC[C@@H]2NC(=O)[C@H](C)NC(=O)[C@H](CCCNC(=N)N)NC(=O)[C@H](CCCCN)NC(=O)[C@H](CO)NC(=O)[C@H](CC(=O)O)NC(=O)[C@@H]3CSSC[C@H](NC(=O)[C@H](CCCNC(=N)N)NC(=O)[C@H](CC(C)C)NC(=O)CNC(=O)[C@H](CCC(=O)O)NC(=O)[C@H](CSSC[C@H](NC(=O)[C@@H](N)Cc4ccc(O)cc4)C(=O)N[C@@H](CCC(N)=O)C(=O)N[C@@H](CCCCN)C(=O)N[C@@H](Cc4c[nH]c5ccccc45)C(=O)N[C@@H](CCSC)C(=O)N[C@@H](Cc4c[nH]c5ccccc45)C(=O)N[C@@H]([C@@H](C)O)C(=O)N3)NC2=O)C(=O)N[C@@H](CCCCN)C(=O)N[C@@H](CCC(=O)O)C(=O)N[C@@H](Cc2c[nH]c3ccccc23)C(=O)N1)[C@@H](C)CC)C(N)=O [L23 Glu mutant]		IC50 [2]: > 5 µM
CC[C@H](C)[C@H](NC(=O)[C@@H](NC(=O)[C@H](CCCCN)NC(=O)[C@H](CCCNC(=N)N)NC(=O)[C@@H]1CSSC[C@@H]2NC(=O)[C@H](CCC(=O)O)NC(=O)[C@H](CCCNC(=N)N)NC(=O)[C@H](CCCCN)NC(=O)[C@H](CO)NC(=O)[C@H](CC(=O)O)NC(=O)[C@@H]3CSSC[C@H](NC(=O)[C@H](CCCNC(=N)N)NC(=O)[C@H](CC(C)C)NC(=O)CNC(=O)[C@H](CCC(=O)O)NC(=O)[C@H](CSSC[C@H](NC(=O)[C@@H](N)Cc4ccc(O)cc4)C(=O)N[C@@H](CCC(N)=O)C(=O)N[C@@H](CCCCN)C(=O)N[C@@H](Cc4c[nH]c5ccccc45)C(=O)N[C@@H](CCSC)C(=O)N[C@@H](Cc4c[nH]c5ccccc45)C(=O)N[C@@H]([C@@H](C)O)C(=O)N3)NC2=O)C(=O)N[C@@H](CCCCN)C(=O)N[C@@H](CC(C)C)C(=O)N[C@@H](Cc2c[nH]c3ccccc23)C(=O)N1)[C@@H](C)CC)C(N)=O [A14 Glu mutant]		IC50 [2]: > 5 µM
CC[C@H](C)[C@H](NC(=O)[C@H](C)NC(=O)[C@H](CCCCN)NC(=O)[C@H](CCCNC(=N)N)NC(=O)[C@@H]1CSSC[C@@H]2NC(=O)[C@H](C)NC(=O)[C@H](CCCNC(=N)N)NC(=O)[C@H](CCCCN)NC(=O)[C@H](CO)NC(=O)[C@H](CC(=O)O)NC(=O)[C@@H]3CSSC[C@H](NC(=O)[C@H](CCCNC(=N)N)NC(=O)[C@H](CC(C)C)NC(=O)CNC(=O)[C@H](CCC(=O)O)NC(=O)[C@H](CSSC[C@H](NC(=O)[C@@H](N)Cc4ccc(O)cc4)C(=O)N[C@@H](CCC(N)=O)C(=O)N[C@@H](CCCCN)C(=O)N[C@@H](Cc4c[nH]c5ccccc45)C(=O)N[C@@H](CCSC)C(=O)N[C@@H](Cc4c[nH]c5ccccc45)C(=O)N[C@@H]([C@@H](C)O)C(=O)N3)NC2=O)C(=O)N[C@@H](CCCCN)C(=O)N[C@@H](CC(C)C)C(=O)N[C@@H](Cc2c[nH]c3ccccc23)C(=O)N1)C(N)=O [I28 Ala mutant]	> 5	
CC[C@H](C)[C@H](NC(=O)[C@@H](NC(=O)[C@H](CCCCN)NC(=O)[C@H](CCCNC(=N)N)NC(=O)[C@@H]1CSSC[C@@H]2NC(=O)[C@H](C)NC(=O)[C@H](CCCNC(=N)N)NC(=O)[C@H](CCCCN)NC(=O)[C@H](CO)NC(=O)[C@H](CC(=O)O)NC(=O)[C@@H]3CSSC[C@H](NC(=O)[C@H](CCCNC(=N)N)NC(=O)[C@H](CC(C)C)NC(=O)CNC(=O)[C@H](CCC(=O)O)NC(=O)[C@H](CSSC[C@H](NC(=O)[C@@H](N)Cc4ccc(O)cc4)C(=O)N[C@@H](CCC(N)=O)C(=O)N[C@@H](CCCCN)C(=O)N[C@@H](Cc4c[nH]c5ccccc45)C(=O)N[C@@H](CCSC)C(=O)N[C@@H](C)C(=O)N[C@@H]([C@@H](C)O)C(=O)N3)NC2=O)C(=O)N[C@@H](CCCCN)C(=O)N[C@@H](CC(C)C)C(=O)N[C@@H](Cc2c[nH]c3ccccc23)C(=O)N1)[C@@H](C)CC)C(N)=O [W7 Ala mutant]	> 5	
CC[C@H](C)[C@H](NC(=O)[C@H](CCCCN)NC(=O)[C@H](CCCNC(=N)N)NC(=O)[C@@H]1CSSC[C@@H]2NC(=O)[C@H](C)NC(=O)[C@H](CCCNC(=N)N)NC(=O)[C@H](CCCCN)NC(=O)[C@H](CO)NC(=O)[C@H](CC(=O)O)NC(=O)[C@@H]3CSSC[C@H](NC(=O)[C@H](CCCNC(=N)N)NC(=O)[C@H](CC(C)C)NC(=O)CNC(=O)[C@H](CCC(=O)O)NC(=O)[C@H](CSSC[C@H](NC(=O)[C@@H](N)Cc4ccc(O)cc4)C(=O)N[C@@H](CCC(N)=O)C(=O)N[C@@H](CCCCN)C(=O)N[C@@H](Cc4c[nH]c5ccccc45)C(=O)N[C@@H](CCSC)C(=O)N[C@@H](Cc4c[nH]c5ccccc45)C(=O)N[C@@H]([C@@H](C)O)C(=O)N3)NC2=O)C(=O)N[C@@H](CCCCN)C(=O)N[C@@H](CC(C)C)C(=O)N[C@@H](Cc2c[nH]c3ccccc23)C(=O)N1)C(=O)N[C@@H](C)C(N)=O [I29 Ala mutant]	> 5	
CC[C@H](C)[C@H](NC(=O)[C@@H](NC(=O)[C@H](CCCCN)NC(=O)[C@H](CCCNC(=N)N)NC(=O)[C@@H]1CSSC[C@@H]2NC(=O)[C@H](C)NC(=O)[C@H](CCCNC(=N)N)NC(=O)[C@H](CCCCN)NC(=O)[C@H](CO)NC(=O)[C@H](CC(=O)O)NC(=O)[C@@H]3CSSC[C@H](NC(=O)[C@H](CCCNC(=N)N)NC(=O)[C@H](CC(C)C)NC(=O)CNC(=O)[C@H](CCC(=O)O)NC(=O)[C@H](CSSC[C@H](NC(=O)[C@@H](N)Cc4ccc(O)cc4)C(=O)N[C@@H](CCC(N)=O)C(=O)N[C@@H](CCCCN)C(=O)N[C@@H](Cc4c[nH]c5ccccc45)C(=O)N[C@@H](CCSC)C(=O)N[C@@H](Cc4c[nH]c5ccccc45)C(=O)N[C@@H]([C@@H](C)O)C(=O)N3)NC2=O)C(=O)N[C@@H](CCCCN)C(=O)N[C@@H](C)C(=O)N[C@@H](Cc2c[nH]c3ccccc23)C(=O)N1)[C@@H](C)CC)C(N)=O [L23 Ala mutant]	> 5	
CC[C@H](C)[C@H](NC(=O)[C@H](CCCCN)NC(=O)[C@H](CCCNC(=N)N)NC(=O)[C@@H]1CSSC[C@@H]2NC(=O)[C@H](C)NC(=O)[C@H](CCCNC(=N)N)NC(=O)[C@H](CCCCN)NC(=O)[C@H](CO)NC(=O)[C@H](CC(=O)O)NC(=O)[C@@H]3CSSC[C@H](NC(=O)[C@H](CCCNC(=N)N)NC(=O)[C@H](CC(C)C)NC(=O)CNC(=O)[C@H](CCC(=O)O)NC(=O)[C@H](CSSC[C@H](NC(=O)[C@@H](N)Cc4ccc(O)cc4)C(=O)N[C@@H](CCC(N)=O)C(=O)N[C@@H](CCCCN)C(=O)N[C@@H](Cc4c[nH]c5ccccc45)C(=O)N[C@@H](CCSC)C(=O)N[C@@H](Cc4c[nH]c5ccccc45)C(=O)N[C@@H]([C@@H](C)O)C(=O)N3)NC2=O)C(=O)N[C@@H](CCCCN)C(=O)N[C@@H](CC(C)C)C(=O)N[C@@H](Cc2c[nH]c3ccccc23)C(=O)N1)C(=O)N[C@@H](CCC(=O)O)C(N)=O [I29 Glu mutant]		IC50 [2]: > 5 µM
